Where two headings read alike, the source gives them in different places.
Target: T1, BRM (Homo sapiens, UniProt P51531)
T1 construct: In-Cell Western Screen of BRM Degradation in SW1573 Cells; endogenous in cells; host or cells: SW1573
Experiment: In-cell Western screen of BRM degradation in SW1573 cells (Dmax and DC50)
Type: cell-based
Settings: BRM degradation, SW1573 cells; for Dmax: read-out: Dmax (% degraded)
Method in brief: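 Near-infrared imaging on a LI-COR Odyssey (800 and 680 nm channels) quantifies BRM remaining in fixed SW1573 cells. Cells are dosed for 18-20 h at 0.1% final DMSO, and degradation is expressed as Dmax and DC50.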

T1 sequence (P51531 whole entry): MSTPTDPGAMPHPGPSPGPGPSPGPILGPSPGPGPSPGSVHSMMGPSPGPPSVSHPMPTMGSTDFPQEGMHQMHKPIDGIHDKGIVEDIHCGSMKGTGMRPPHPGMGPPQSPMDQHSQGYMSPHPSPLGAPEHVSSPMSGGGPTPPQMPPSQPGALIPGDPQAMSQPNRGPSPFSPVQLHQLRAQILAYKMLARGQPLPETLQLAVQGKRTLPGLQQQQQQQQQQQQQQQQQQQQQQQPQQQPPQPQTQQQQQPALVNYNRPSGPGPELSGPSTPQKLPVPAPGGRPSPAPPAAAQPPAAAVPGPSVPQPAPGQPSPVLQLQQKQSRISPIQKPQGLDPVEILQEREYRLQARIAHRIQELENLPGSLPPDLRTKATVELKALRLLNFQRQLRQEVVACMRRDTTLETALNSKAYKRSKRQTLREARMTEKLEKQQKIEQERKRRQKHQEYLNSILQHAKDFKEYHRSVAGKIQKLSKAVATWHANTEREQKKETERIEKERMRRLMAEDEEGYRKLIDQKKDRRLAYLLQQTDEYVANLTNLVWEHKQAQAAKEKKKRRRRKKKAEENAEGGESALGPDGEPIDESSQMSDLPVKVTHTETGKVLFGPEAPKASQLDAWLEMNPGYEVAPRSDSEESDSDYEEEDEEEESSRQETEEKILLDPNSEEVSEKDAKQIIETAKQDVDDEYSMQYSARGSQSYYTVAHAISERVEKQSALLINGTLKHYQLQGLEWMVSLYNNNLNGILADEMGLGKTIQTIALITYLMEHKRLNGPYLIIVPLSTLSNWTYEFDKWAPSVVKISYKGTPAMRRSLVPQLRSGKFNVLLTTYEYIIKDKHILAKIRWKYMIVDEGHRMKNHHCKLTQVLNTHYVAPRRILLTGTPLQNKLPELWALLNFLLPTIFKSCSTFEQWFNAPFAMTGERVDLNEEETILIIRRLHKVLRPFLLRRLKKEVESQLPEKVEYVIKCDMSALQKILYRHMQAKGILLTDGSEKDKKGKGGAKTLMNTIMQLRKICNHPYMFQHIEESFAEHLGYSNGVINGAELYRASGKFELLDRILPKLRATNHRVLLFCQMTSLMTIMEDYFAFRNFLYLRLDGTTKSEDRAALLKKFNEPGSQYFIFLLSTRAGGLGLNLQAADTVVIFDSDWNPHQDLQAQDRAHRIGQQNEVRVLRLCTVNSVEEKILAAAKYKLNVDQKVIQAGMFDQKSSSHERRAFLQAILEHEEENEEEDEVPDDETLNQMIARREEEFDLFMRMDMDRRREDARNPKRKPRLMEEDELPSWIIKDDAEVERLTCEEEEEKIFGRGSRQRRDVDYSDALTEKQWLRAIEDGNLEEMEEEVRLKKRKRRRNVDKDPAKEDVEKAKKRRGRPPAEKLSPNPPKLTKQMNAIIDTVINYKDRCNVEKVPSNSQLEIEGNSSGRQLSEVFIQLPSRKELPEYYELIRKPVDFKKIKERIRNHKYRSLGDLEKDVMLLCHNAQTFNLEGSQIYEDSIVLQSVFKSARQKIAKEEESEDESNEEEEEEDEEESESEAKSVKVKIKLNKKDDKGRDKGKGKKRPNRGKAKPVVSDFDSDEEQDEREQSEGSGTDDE

Structure (SMILES)	DC50 (read-out: DC50) [nM]	Dmax [%]	DC50 [nM]
Cc1ncsc1-c1ccc([C@H](C)NC(=O)[C@@H]2C[C@@H](O)CN2C(=O)[C@@H](c2cc(N3CCC(CN4CCC(O[C@H]5C[C@H](C#Cc6cc(N7C8CCC7CN(c7cc(-c9ccccc9O)nnc7N)C8)ccn6)C5)CC4)CC3)no2)C(C)C)cc1 [compound 699, (2S,4R)-1-((2R)-2-(3-(4-((4-((1r,3r)-3-((4-(3-(3-amino-6-(2-hydroxyphenyl)pyridazin-4-yl)-3,8-diazabicyclo[3.2.1]octan-8-yl)pyridin-2-yl)ethynyl)cyclobutoxy)piperidin-1-yl)methyl)piperidin-1-yl)isoxazol-5-yl)-3-methylbutanoyl)-4-hydroxy-N-((S)-1-(4-(4-methylthiazol-5-yl)phenyl)ethyl)pyrrolidine-2-carboxamide]	< 2.5	> 75	
Cc1ncsc1-c1ccc([C@H](C)NC(=O)[C@@H]2C[C@@H](O)CN2C(=O)[C@H](c2cc(N3CCC(CN4CCC(O[C@H]5C[C@H](Oc6cc(N7C8CCC7CN(c7cc(-c9ccccc9O)nnc7N)C8)ccn6)C5)CC4)CC3)no2)C(C)C)cc1O [compound 700, (2S,4R)-1-((2S)-2-(3-(4-((4-((1r,3r)-3-((4-(3-(3-amino-6-(2-hydroxyphenyl)pyridazin-4-yl)-3,8-diazabicyclo[3.2.1]octan-8-yl)pyridin-2-yl)oxy)cyclobutoxy)piperidin-1-yl)methyl)piperidin-1-yl)isoxazol-5-yl)-3-methylbutanoyl)-4-hydroxy-N-((S)-1-(3-hydroxy-4-(4-methylthiazol-5-yl)phenyl)ethyl)pyrrolidine-2-carboxamide]	> 30		
Cc1ncsc1-c1ccc(C(CCCP(=O)(O)O)NC(=O)[C@@H]2C[C@@H](O)CN2C(=O)[C@H](c2cc(OCCN3CCC(O[C@H]4C[C@H](Oc5cc(N6C7CCC6CN(c6cc(-c8ccccc8O)nnc6N)C7)ccn5)C4)CC3)no2)C(C)C)cc1 (stereo partly drawn) [compound 701, (4-((2S,4R)-1-((2S)-2-(3-(2-(4-((1r,3S)-3-((4-(3-(3-amino-6-(2-hydroxyphenyl)pyridazin-4-yl)-3,8-diazabicyclo[3.2.1]octan-8-yl)pyridin-2-yl)oxy)cyclobutoxy)piperidin-1-yl)ethoxy)isoxazol-5-yl)-3-methylbutanoyl)-4-hydroxypyrrolidine-2-carboxamido)-4-(4-(4-methylthiazol-5-yl)phenyl)butyl)phosphonic acid]			> 30
Cc1ncsc1-c1ccc(C(CCCP(=O)(O)O)NC(=O)[C@@H]2C[C@@H](O)CN2C(=O)[C@@H](c2cc(OCCN3CCC(O[C@H]4C[C@H](Oc5cc(N6C7CCC6CN(c6cc(-c8ccccc8O)nnc6N)C7)ccn5)C4)CC3)no2)C(C)C)cc1 (stereo partly drawn) [compound 702, (4-((2S,4R)-1-((2R)-2-(3-(2-(4-((1r,3R)-3-((4-(3-(3-amino-6-(2-hydroxyphenyl)pyridazin-4-yl)-3,8-diazabicyclo[3.2.1]octan-8-yl)pyridin-2-yl)oxy)cyclobutoxy)piperidin-1-yl)ethoxy)isoxazol-5-yl)-3-methylbutanoyl)-4-hydroxypyrrolidine-2-carboxamido)-4-(4-(4-methylthiazol-5-yl)phenyl)butyl)phosphonic acid]			> 30
Cc1ncsc1-c1ccc([C@H](C)NC(=O)[C@@H]2C[C@@H](O)CN2C(=O)[C@H](c2cc(N3CCN(C(C)[C@H]4C[C@H](Oc5cc(N6C7CCC6CN(c6cc(-c8ccccc8O)nnc6N)C7)ccn5)C4)CC3)no2)C(C)C)cc1 (stereo partly drawn) [compound 703, (2S,4R)-1-((2S)-2-(3-(4-((1S)-1-((1r,3S)-3-((4-(3-(3-amino-6-(2-hydroxyphenyl)pyridazin-4-yl)-3,8-diazabicyclo[3.2.1]octan-8-yl)pyridin-2-yl)oxy)cyclobutyl)ethyl)piperazin-1-yl)isoxazol-5-yl)-3-methylbutanoyl)-4-hydroxy-N-((S)-1-(4-(4-methylthiazol-5-yl)phenyl)ethyl)pyrrolidine-2-carboxamide]	2.5 to 10	> 75	
Cc1ncsc1-c1ccc([C@H](C)NC(=O)[C@@H]2C[C@@H](O)CN2C(=O)[C@@H](c2cc(N3CCN(C(C)[C@H]4C[C@H](Oc5cc(N6C7CCC6CN(c6cc(-c8ccccc8O)nnc6N)C7)ccn5)C4)CC3)no2)C(C)C)cc1 (stereo partly drawn) [compound 704, (2S,4R)-1-((2R)-2-(3-(4-((1S)-1-((1r,3S)-3-((4-(3-(3-amino-6-(2-hydroxyphenyl)pyridazin-4-yl)-3,8-diazabicyclo[3.2.1]octan-8-yl)pyridin-2-yl)oxy)cyclobutyl)ethyl)piperazin-1-yl)isoxazol-5-yl)-3-methylbutanoyl)-4-hydroxy-N-((S)-1-(4-(4-methylthiazol-5-yl)phenyl)ethyl)pyrrolidine-2-carboxamide]	< 2.5	> 75	
Cc1ncsc1-c1ccc([C@H](C)NC(=O)[C@@H]2C[C@@H](O)CN2C(=O)[C@@H](c2cc(N3CCC(CN4CCN(C[C@H]5C[C@H](Oc6cc(N7C8CCC7CN(c7cc(-c9ccccc9O)nnc7N)C8)ccn6)C5)C(C)C4C)CC3)no2)C(C)C)cc1 (stereo partly drawn) [compound 705, (2S,4R)-1-((2R)-2-(3-(4-((4-(((1r,3r)-3-((4-(3-(3-amino-6-(2-hydroxyphenyl)pyridazin-4-yl)-3,8-diazabicyclo[3.2.1]octan-8-yl)pyridin-2-yl)oxy)cyclobutyl)methyl)-2,3-dimethylpiperazin-1-yl)methyl)piperidin-1-yl)isoxazol-5-yl)-3-methylbutanoyl)-4-hydroxy-N-((S)-1-(4-(4-methylthiazol-5-yl)phenyl)ethyl)pyrrolidine-2-carboxamide]	< 2.5	> 75	
Cc1ncsc1-c1ccc([C@H](C)NC(=O)[C@@H]2C[C@@H](O)CN2C(=O)[C@@H](c2cc(N3CCC(CN4CCC(O[C@H]5C[C@H](C#CC(C)N6CCOC7(CCN(c8cc(-c9ccccc9O)nnc8N)CC7)C6)C5)CC4)CC3)no2)C(C)C)cc1 (stereo partly drawn) [compound 707, (2S,4R)-1-((2R)-2-(3-(4-((4-((1r,3r)-3-(3-(9-(3-amino-6-(2-hydroxyphenyl)pyridazin-4-yl)-1-oxa-4,9-diazaspiro[5.5]undecan-4-yl)but-1-yn-1-yl)cyclobutoxy)piperidin-1-yl)methyl)piperidin-1-yl)isoxazol-5-yl)-3-methylbutanoyl)-4-hydroxy-N-((S)-1-(4-(4-methylthiazol-5-yl)phenyl)ethyl)pyrrolidine-2-carboxamide]	< 2.5	> 75	
Cc1ncsc1-c1ccc([C@H](C)NC(=O)[C@@H]2C[C@@H](O)CN2C(=O)[C@@H](c2cc(N3CCC(CN4CCC(O[C@H]5C[C@H](Oc6cc(N7C8CCC7CN(c7cc(-c9ccccc9O)nnc7N)C8)ccn6)C5)CC4)CC3)no2)C(C)C)c(N)c1 [compound 708, (2S,4R)-N-((S)-1-(2-amino-4-(4-methylthiazol-5-yl)phenyl)ethyl)-1-((2R)-2-(3-(4-((4-((1r,3r)-3-((4-(3-(3-amino-6-(2-hydroxyphenyl)pyridazin-4-yl)-3,8-diazabicyclo[3.2.1]octan-8-yl)pyridin-2-yl)oxy)cyclobutoxy)piperidin-1-yl)methyl)piperidin-1-yl)isoxazol-5-yl)-3-methylbutanoyl)-4-hydroxypyrrolidine-2-carboxamide]	< 2.5	> 75	
CC(C)[C@@H](C(=O)N1C[C@H](O)C[C@H]1C(=O)N[C@@H](C)c1ccc(C2(F)CC2)cc1)c1cc(N2CCC(CN3CCC(O[C@H]4C[C@H](Oc5cc(N6C7CCC6CN(c6cc(-c8ccccc8O)nnc6N)C7)ccn5)C4)CC3)CC2)no1 [compound 713, (2S,4R)-1-((2R)-2-(3-(4-((4-((1r,3r)-3-((4-(3-(3-amino-6-(2-hydroxyphenyl)pyridazin-4-yl)-3,8-diazabicyclo[3.2.1]octan-8-yl)pyridin-2-yl)oxy)cyclobutoxy)piperidin-1-yl)methyl)piperidin-1-yl)isoxazol-5-yl)-3-methylbutanoyl)-N-((S)-1-(4-(1-fluorocyclopropyl)phenyl)ethyl)-4-hydroxypyrrolidine-2-carboxamide]	2.5 to 10	> 75	
Cc1ncsc1-c1ccc([C@H](C)NC(=O)[C@@H]2C[C@@H](O)CN2C(=O)[C@H](c2cc(N3CCN(C(C)(C)C4CCN(C[C@H]5C[C@H](Oc6cc(N7C8CCC7CN(c7cc(-c9ccccc9O)nnc7N)C8)ccn6)C5)CC4)CC3)no2)C(C)C)cc1 [compound 714, (2S,4R)-1-((2S)-2-(3-(4-(2-(1-(((1r,3r)-3-((4-(3-(3-amino-6-(2-hydroxyphenyl)pyridazin-4-yl)-3,8-diazabicyclo[3.2.1]octan-8-yl)pyridin-2-yl)oxy)cyclobutyl)methyl)piperidin-4-yl)propan-2-yl)piperazin-1-yl)isoxazol-5-yl)-3-methylbutanoyl)-4-hydroxy-N-((S)-1-(4-(4-methylthiazol-5-yl)phenyl)ethyl) pyrrolidine-2-carboxamide]	> 30		
Cc1ncsc1-c1ccc([C@H](C)NC(=O)[C@@H]2C[C@@H](O)CN2C(=O)[C@@H](c2cc(N3CCN(C(C)(C)C4CCN(C[C@H]5C[C@H](Oc6cc(N7C8CCC7CN(c7cc(-c9ccccc9O)nnc7N)C8)ccn6)C5)CC4)CC3)no2)C(C)C)cc1 [compound 715, (2S,4R)-1-((2R)-2-(3-(4-(2-(1-(((1r,3r)-3-((4-(3-(3-amino-6-(2-hydroxyphenyl)pyridazin-4-yl)-3,8-diazabicyclo[3.2.1]octan-8-yl)pyridin-2-yl)oxy)cyclobutyl)methyl)piperidin-4-yl)propan-2-yl)piperazin-1-yl)isoxazol-5-yl)-3-methylbutanoyl)-4-hydroxy-N-((S)-1-(4-(4-methylthiazol-5-yl)phenyl)ethyl)pyrrolidine-2-carboxamide]	< 2.5	> 75	
